In patent US20240360134A1, “PYRAZOLOPYRIMIDINES AND THEIR USES AS PDGFR INHIBITORS” (priority 2021, published 2024) one finds IC50 data, which are given here for 18 molecules.

A word on the IC50: it is the midpoint of a concentration-inhibition curve.

Assay [1] deals with PDGFRβ (Rattus norvegicus (Rat), UniProt Q05030). The experiment in a line: PDGFRβ Cellular Assay (PDGFRb P-Y751 HTRF, PDGF-BB stimulated A10 cells). The note with it: A10 cells, 3 hours compound, 15 ng/mL PDGFbb for 10 minutes; read-out: PDGFR Cellular IC50. It counts as cell-based. A digest of the protocol:
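Rat A10 cells plated overnight were treated with compound for 3 h, stimulated with rat PDGF-BB (working stock 100 ng/mL in 10% FBS medium) for 10 min, then lysed.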

Assay [2] deals with Tb-labeled inactive PDGFRβ (Homo sapiens (Human), UniProt P09619). Description: biochemical. It counts as binding. The note with it: read-out: PDGFR Lantha IC50.
Tb-labeled inactive PDGFRβ, sequence (P09619 whole entry, looked up): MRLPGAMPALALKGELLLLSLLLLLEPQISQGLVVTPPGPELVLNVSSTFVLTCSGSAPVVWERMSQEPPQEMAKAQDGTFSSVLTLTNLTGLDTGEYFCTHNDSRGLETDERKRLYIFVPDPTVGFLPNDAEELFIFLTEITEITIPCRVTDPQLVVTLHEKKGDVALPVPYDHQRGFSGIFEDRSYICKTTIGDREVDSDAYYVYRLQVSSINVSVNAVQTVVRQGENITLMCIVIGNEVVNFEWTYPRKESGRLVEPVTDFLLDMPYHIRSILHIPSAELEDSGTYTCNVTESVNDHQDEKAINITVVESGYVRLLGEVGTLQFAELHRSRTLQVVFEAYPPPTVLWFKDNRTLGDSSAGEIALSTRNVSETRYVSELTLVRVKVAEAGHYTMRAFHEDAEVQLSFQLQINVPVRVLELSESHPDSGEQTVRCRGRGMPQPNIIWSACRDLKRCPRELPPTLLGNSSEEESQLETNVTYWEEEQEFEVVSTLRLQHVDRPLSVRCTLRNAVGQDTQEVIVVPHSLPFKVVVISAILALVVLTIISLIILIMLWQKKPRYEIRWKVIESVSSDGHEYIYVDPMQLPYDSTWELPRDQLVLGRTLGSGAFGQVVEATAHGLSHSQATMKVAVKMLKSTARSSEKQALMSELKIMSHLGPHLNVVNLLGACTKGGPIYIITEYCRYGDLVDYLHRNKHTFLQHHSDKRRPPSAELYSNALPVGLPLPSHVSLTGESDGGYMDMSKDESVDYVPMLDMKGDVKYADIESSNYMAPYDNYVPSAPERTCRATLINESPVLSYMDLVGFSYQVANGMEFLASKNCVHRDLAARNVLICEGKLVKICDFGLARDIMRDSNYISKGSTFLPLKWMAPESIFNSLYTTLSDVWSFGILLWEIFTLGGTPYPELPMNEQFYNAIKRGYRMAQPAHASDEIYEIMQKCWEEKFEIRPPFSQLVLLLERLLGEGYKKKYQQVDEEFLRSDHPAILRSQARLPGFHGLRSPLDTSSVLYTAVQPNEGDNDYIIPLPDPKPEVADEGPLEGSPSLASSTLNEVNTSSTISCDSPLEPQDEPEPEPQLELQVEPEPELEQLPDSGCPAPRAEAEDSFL
The target of assay [3] is VEGFR2, unphosphorylated (Homo sapiens (Human), UniProt P35968). The experiment in a line: VEGFR ADP GLO assay. It counts as biochemical. The note with it: 5 nM VEGFR2, 1.2 mM ATP, 1 mg/mL Srctide, 180 min. Put shortly: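 Luminescent ADP detection after a 180-min room-temperature reaction of srctide plus ATP (2 mg/mL and 2.4 mM in 2× mix) in pH 7.5 HEPES buffer with DTT, Pluronic and ovalbumin. Compounds, 11 points from 10 µM, first pre-incubated 30 min with enzyme (2× mix 10 nM). IC50s fitted after scaling between DMSO and 1 µM TAK-593 controls.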
VEGFR2, unphosphorylated, sequence (P35968 whole entry, looked up): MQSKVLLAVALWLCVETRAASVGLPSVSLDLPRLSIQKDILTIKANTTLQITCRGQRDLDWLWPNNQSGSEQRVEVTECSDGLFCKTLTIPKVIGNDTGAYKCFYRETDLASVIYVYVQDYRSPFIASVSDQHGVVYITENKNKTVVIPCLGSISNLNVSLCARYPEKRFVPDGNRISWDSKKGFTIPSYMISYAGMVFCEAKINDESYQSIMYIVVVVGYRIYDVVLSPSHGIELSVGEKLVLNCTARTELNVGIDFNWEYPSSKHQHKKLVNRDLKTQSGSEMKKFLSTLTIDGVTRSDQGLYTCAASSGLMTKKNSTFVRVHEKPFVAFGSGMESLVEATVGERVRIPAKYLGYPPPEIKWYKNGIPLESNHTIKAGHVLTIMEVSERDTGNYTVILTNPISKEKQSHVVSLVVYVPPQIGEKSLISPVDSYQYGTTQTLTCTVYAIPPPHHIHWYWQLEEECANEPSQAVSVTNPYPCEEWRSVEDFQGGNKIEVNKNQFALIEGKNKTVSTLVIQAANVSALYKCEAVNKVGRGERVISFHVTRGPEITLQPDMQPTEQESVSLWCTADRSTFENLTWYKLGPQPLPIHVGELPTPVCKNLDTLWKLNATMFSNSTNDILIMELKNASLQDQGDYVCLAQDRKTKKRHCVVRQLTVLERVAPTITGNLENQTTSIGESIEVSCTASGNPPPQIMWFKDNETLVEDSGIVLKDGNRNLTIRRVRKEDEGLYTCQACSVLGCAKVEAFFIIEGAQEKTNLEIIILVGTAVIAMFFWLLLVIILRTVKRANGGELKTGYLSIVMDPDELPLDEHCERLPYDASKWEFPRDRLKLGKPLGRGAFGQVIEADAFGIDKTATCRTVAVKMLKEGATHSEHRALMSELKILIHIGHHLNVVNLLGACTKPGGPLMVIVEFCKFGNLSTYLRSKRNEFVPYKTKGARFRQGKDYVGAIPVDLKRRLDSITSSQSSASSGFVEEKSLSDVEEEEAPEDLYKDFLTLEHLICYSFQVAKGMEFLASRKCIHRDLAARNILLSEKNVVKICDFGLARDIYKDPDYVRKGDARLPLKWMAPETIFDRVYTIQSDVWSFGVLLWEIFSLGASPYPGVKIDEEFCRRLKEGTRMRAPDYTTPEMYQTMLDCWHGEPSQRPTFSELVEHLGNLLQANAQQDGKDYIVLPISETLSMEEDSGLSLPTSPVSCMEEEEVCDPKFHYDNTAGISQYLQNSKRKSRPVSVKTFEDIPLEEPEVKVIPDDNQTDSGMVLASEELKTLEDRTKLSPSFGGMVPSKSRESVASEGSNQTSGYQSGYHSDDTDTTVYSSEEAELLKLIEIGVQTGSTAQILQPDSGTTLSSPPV
In general terms: ADP-Glo turns the ADP formed in a reaction into a luminescent signal.

The target of assay [4] is His6-TEV-PDGFRβ (557-1016) (Homo sapiens (Human), UniProt P09619). The experiment in a line: PDGFRβ HTRF Assay. It counts as biochemical. The note with it: 800 μM ATP, 0.5 μM TK-substrate biotin peptide, 30 min pre-incubation, 3 hours reaction; read-out: PDGFR HTRF IC50.
His6-TEV-PDGFRβ (557-1016), sequence (P09619 whole entry, looked up): as the sequence (P09619 whole entry, looked up) above

PDGFRβ, sequence (Q05030 whole entry, looked up): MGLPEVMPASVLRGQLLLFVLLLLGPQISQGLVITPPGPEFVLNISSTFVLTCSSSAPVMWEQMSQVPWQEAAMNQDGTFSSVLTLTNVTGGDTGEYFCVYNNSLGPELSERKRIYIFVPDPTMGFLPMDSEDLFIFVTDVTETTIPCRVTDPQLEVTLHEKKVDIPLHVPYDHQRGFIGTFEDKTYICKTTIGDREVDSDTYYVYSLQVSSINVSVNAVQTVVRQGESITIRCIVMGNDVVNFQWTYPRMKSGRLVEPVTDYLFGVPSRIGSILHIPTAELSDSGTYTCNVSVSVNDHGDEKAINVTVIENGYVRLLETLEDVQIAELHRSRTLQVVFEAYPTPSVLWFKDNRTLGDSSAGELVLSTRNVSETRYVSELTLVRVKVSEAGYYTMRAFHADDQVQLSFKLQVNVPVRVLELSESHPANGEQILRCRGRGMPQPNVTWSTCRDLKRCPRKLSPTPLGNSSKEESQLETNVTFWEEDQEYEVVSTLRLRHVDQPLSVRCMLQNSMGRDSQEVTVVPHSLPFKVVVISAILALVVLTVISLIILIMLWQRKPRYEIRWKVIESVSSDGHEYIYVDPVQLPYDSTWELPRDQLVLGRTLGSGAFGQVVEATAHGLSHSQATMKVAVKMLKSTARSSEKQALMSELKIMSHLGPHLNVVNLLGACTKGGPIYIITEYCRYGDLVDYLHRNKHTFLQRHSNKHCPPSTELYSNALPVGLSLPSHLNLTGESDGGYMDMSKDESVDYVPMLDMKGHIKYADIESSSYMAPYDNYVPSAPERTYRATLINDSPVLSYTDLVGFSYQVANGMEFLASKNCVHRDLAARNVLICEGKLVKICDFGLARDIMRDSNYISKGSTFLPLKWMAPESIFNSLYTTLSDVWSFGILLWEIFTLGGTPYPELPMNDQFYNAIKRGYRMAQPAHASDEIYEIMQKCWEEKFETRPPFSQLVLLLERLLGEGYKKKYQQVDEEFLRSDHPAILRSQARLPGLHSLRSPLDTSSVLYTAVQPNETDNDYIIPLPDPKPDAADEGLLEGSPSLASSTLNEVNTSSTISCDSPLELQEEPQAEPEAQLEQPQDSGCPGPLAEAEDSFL

`Cn1nc(Nc2cc(C(=O)NCCN3CCCC3(C)C)ccc2F)c2cnc(Nc3ccncn3)nc21` [Example 52, N-(2-(2,2-dimethylpyrrolidin-1-yl)ethyl)-4-fluoro-3-((1-methyl-6-(pyrimidin-4-ylamino)-1H-pyrazolo[3,4-d]pyrimidin-3-yl)amino)benzamide]: the IC50 was 67 nM in assay [1], 160 nM in assay [2], above 2.5 µM in assay [3] and 4.71 nM in assay [4].
`Cc1ncc(C(=O)NCCN2CCC3(CCC3)CC2)cc1Nc1nn(C)c2nc(Nc3cncnc3)ncc12` [Example 7, N-(2-(7-azaspiro[3.5]nonan-7-yl)ethyl)-6-methyl-5-((1-methyl-6-(pyrimidin-5-ylamino)-1H-pyrazolo[3,4-d]pyrimidin-3-yl)amino)nicotinamide]: the IC50 in assay [1] was 32.7 nM; in assay [2] it was 6.7 nM; in assay [3], above 7.5 µM; in assay [4], 0.48 nM.
For `Cc1ncc(C(=O)NCCN2CCC(F)(F)CC2)cc1Nc1nn(C)c2nc(Nc3cncnc3)ncc12` [Example 1, N-(2-(4,4-difluoropiperidin-1-yl)ethyl)-6-methyl-5-((1-methyl-6-(pyrimidin-5-ylamino)-1H-pyrazolo[3,4-d]pyrimidin-3-yl)amino)nicotinamide], the IC50 in assay [1] was 12 nM; in assay [2] it was 3.3 nM; in assay [3], above 7.5 µM; in assay [4], 0.65 nM.
On the same counts, the results for `Cn1cc(Nc2ncc3c(Nc4cc(C(=O)NCCN5CCC(F)(F)CC5)ccc4F)nn(C)c3n2)cn1` [Example 63, N-(2-(4,4-difluoropiperidin-1-yl)ethyl)-4-fluoro-3-((1-methyl-6-((1-methyl-1H-pyrazol-4-yl)amino)-1H-pyrazolo[3,4-d]pyrimidin-3-yl)amino)benzamide] are 1.6 nM, 0.89 nM, 0.582 µM and 0.2 nM.
For the molecule `COCCn1cc(Nc2ncc3c(Nc4cc(NC(=O)CN5CCCC56CCC6)cnc4C)nn(C)c3n2)cn1` [Example 132, N-(5-((6-((1-(2-methoxyethyl)-1H-pyrazol-4-yl)amino)-1-methyl-1H-pyrazolo[3,4-d]pyrimidin-3-yl)amino)-6-methylpyridin-3-yl)-2-(5-azaspiro[3.4]octan-5-yl)acetamide], the IC50 in assay [1] is 3.2 nM; in assay [2] it was 2 nM; in assay [3] it was above 7.5 µM; in assay [4], 0.35 nM.
Regarding `Cn1cc(Nc2ncc3c(Nc4cc(C(=O)NCCN5CC(C)(C)C5)ccc4F)nn(C)c3n2)cn1` [Example 120, N-(2-(3,3-dimethylazetidin-1-yl)ethyl)-4-fluoro-3-((1-methyl-6-((1-methyl-1H-pyrazol-4-yl)amino)-1H-pyrazolo[3,4-d]pyrimidin-3-yl)amino)benzamide], the IC50 in assay [1] was 9.9 nM; in assay [2] it was 3.3 nM; in assay [3] it was above 7.5 µM; in assay [4] it was 0.32 nM.
On the same counts, the results for `COCCn1cc(Nc2ncc3c(Nc4cc(NC(=O)CN5CCC56CCC6)cnc4C)nn(C)c3n2)cn1` [Example 130, N-(5-((6-((1-(2-methoxyethyl)-1H-pyrazol-4-yl)amino)-1-methyl-1H-pyrazolo[3,4-d]pyrimidin-3-yl)amino)-6-methylpyridin-3-yl)-2-(1-azaspiro[3.3]heptan-1-yl)acetamide] are 4.7 nM, 1.5 nM, above 7.5 µM and 0.37 nM.
With `Cc1ncc(C(=O)NCCN2CCCC2(C)C)cc1Nc1nn(C)c2nc(Nc3cncnc3)ncc12` [Example 27, N-(2-(2,2-dimethylpyrrolidin-1-yl)ethyl)-6-methyl-5-((1-methyl-6-(pyrimidin-5-ylamino)-1H-pyrazolo[3,4-d]pyrimidin-3-yl)amino)nicotinamide], the IC50 was 31.2 nM in assay [1], 4 nM in assay [2], above 10 µM in assay [3] and 0.7 nM in assay [4].
With `Cc1cc(C(=O)NCCN2CC3COCC3C2)sc1Nc1nn(C)c2nc(Nc3cnn(C)c3)ncc12` (stereo not drawn) [Example 61, 4-methyl-5-((1-methyl-6-((1-methyl-1H-pyrazol-4-yl)amino) 1H-pyrazolo[3,4-d]pyrimidin-3-yl)amino)-N-(2-(tetrahydro-1H-furo[3,4-c]pyrrol-5(3H)-yl)ethyl)thiophene-2-carboxamide], the IC50 is 86.8 nM in assay [1], 10.2 nM in assay [2], 3.86 µM in assay [3] and 0.61 nM in assay [4].
Consider `Cc1nn(C)cc1Nc1ncc2c(Nc3cc(C(=O)NCCN4CCC[C@@H]4C)cnc3C)nn(C)c2n1` [Example 160, (S)-5-((6-((1,3-dimethyl-1H-pyrazol-4-yl)amino)-1-methyl-1H-pyrazolo[3,4-d]pyrimidin-3-yl)amino)-6-methyl-N-(2-(2-methylpyrrolidin-1-yl)ethyl)nicotinamide], for which the IC50 in assay [1] is 53.3 nM; in assay [2], 11.3 nM; in assay [3], above 7.5 µM; in assay [4], 1.55 nM.
For `Cc1ccc(C(=O)NCCN2CCC(F)(F)CC2)cc1Nc1nn(C)c2nc(Nc3cnn(C)c3)ncc12` [Example 118, N-(2-(4,4-difluoropiperidin-1-yl)ethyl)-4-methyl-3-((1-methyl-6-((1-methyl-1H-pyrazol-4-yl)amino)-1H-pyrazolo[3,4-d]pyrimidin-3-yl)amino)benzamide], the IC50 was determined as 5.4 nM in assay [1], 1.8 nM in assay [2], 0.076 µM in assay [3] and 0.29 nM in assay [4].
On the same counts, the results for `COCCn1cc(Nc2ncc3c(Nc4cc(NC(=O)CN5CCC(C)(C)C5)cnc4C)nn(C)c3n2)cn1` [Example 129, 2-(3,3-dimethylpyrrolidin-1-yl)-N-(5-((6-((1-(2-methoxyethyl)-1H-pyrazol-4-yl)amino)-1-methyl-1H-pyrazolo[3,4-d]pyrimidin-3-yl)amino)-6-methylpyridin-3-yl)acetamide] are 2.4 nM, 1.3 nM, 1.42 µM and 0.27 nM.
The matching figures for `Cc1ncc(C(=O)NCCN2C3CCCC2CCC3)cc1Nc1nn(C)c2nc(Nc3cnn(C)c3)ncc12` [Example 89, N-(2-(9-azabicyclo[3.3.1]nonan-9-yl)ethyl)-6-methyl-5-((1-methyl-6-((1-methyl-1H-pyrazol-4-yl)amino)-1H-pyrazolo[3,4-d]pyrimidin-3-yl)amino)nicotinamide]: 33.3 nM, 2.8 nM, 4.09 µM and 0.33 nM.
The matching figures for `Cn1nc(Nc2cc(C(=O)NCCN3CCCC3(C)C)ccc2F)c2cnc(Nc3cncnc3)nc21` [Example 51, N-(2-(2,2-dimethylpyrrolidin-1-yl)ethyl)-4-fluoro-3-((1-methyl-6-(pyrimidin-5-ylamino)-1H-pyrazolo[3,4-d]pyrimidin-3-yl)amino)benzamide]: 17.2 nM, 9 nM, above 7.5 µM and 0.87 nM.
Take `Cc1ncc(C(=O)NCCN2CCCC2(C)C)cc1Nc1nn(C)c2nc(Nc3ccc(N)nc3)ncc12` [Example 32, 5-((6-((6-aminopyridin-3-yl)amino)-1-methyl-1H-pyrazolo[3,4-d]pyrimidin-3-yl)amino)-N-(2-(2,2-dimethylpyrrolidin-1-yl)ethyl)-6-methylnicotinamide]: the 50% inhibitory concentration (IC50) was 110 nM in assay [1], 5.7 nM in assay [2], above 7.5 µM in assay [3] and 0.54 nM in assay [4].
In the case of `Cc1ncc(C(=O)NCCN2[C@H](C)CCC[C@@H]2C)cc1Nc1nn(C)c2nc(Nc3cncnc3)ncc12` [Example 14, N-(2-((2S,6R)-2,6-dimethylpiperidin-1-yl)ethyl)-6-methyl-5-((1-methyl-6-(pyrimidin-5-ylamino)-1H-pyrazolo[3,4-d]pyrimidin-3-yl)amino)nicotinamide], the IC50 in assay [1] is 109 nM; in assay [2], 8.5 nM; in assay [3], around 7.13 µM; in assay [4], 0.89 nM.
The matching figures for `Cc1cc(C(=O)NCCN2CCCOCC2)sc1Nc1nn(C)c2nc(Nc3cnn(C)c3)ncc12` [Example 62, N-(2-(1,4-oxazepan-4-yl)ethyl)-4-methyl-5-((1-methyl-6-((1-methyl-1H-pyrazol-4-yl)amino)-1H-pyrazolo[3,4-d]pyrimidin-3-yl)amino)thiophene-2-carboxamide]: 64.7 nM, 12.1 nM, above 7.5 µM and 0.83 nM.
The matching figures for `Cc1ncc(C(=O)NCCN2CCCC2(C)C)cc1Nc1nn(C)c2nc(Nc3ccnc(N4CCC(CCO)CC4)c3)ncc12` [Example 111, N-(2-(2,2-dimethylpyrrolidin-1-yl)ethyl)-5-((6-((2-(4-(2-hydroxyethyl)piperidin-1-yl)pyridin-4-yl)amino)-1-methyl-1H-pyrazolo[3,4-d]pyrimidin-3-yl)amino)-6-methylnicotinamide]: 106 nM, 5.1 nM, above 7.5 µM and 0.51 nM.
